Reference: article PMC12631873 (Advanced Science, 2025)
Square brackets hold non-standard residues; d marks the D form. Peptide text beside a SMILES is read from it. * marks the point of attachment. X1 = CN1/C(=C/C=C/C=C/C2=[N+](CCCCCC(=O)*)c3ccc(S(=O)(=O)[O-])cc3C2(C)C)C(C)(C)c2cc(S(=O)(=O)O)ccc21; Hyp = O=C(O)[C@@H]1C[C@@H](O)CN1; Nlys = NCCCCNCC(=O)O; Ahx = NCCCCCC(=O)O

What was measured:
[1] = tested on: rat chondrocytes; assay: CCK-8 cell viability assay on rat chondrocytes; format: cell-based; conditions: n = 4 wells
Experimental: The cultures were maintained under standard conditions of 37 °C and 5% CO2. Chondrocytes collected from the articular cartilage of Sprague‐Dawley (SD) rats (purchased from Jennio Biotech, JNO‐720) were cultured in DMEM medium (Precell, PM150210). Human venous endothelial cells (HUVECs, purchased from iCell, iCell‐h110) were cultured in HUVEC medium (iCell, iCell‐h110‐001b). Both cells were seeded in 96‐well plates at a density of 5000 cells per well. The medium was supplemented with 10% fetal bovine serum (FBS, Precell, 164210) and penicillin‐streptomycin (1:100 diluted from a 100× stock solution, ThermoFisher, 15140122) to support cell growth and prevent bacterial contamination. […] Cell viability was assessed using the CCK‐8 assay kit (GLPBIO, GK10001−5) according to the manufacturer's instructions. After further incubation for 4 h, the optical density (OD) of the CCK‐8 solution was measured at 450 nm using a microplate reader (PerkinElmer, EnVision). […] The fluorescence images were obtained using an EVOS M7000 imaging system (Light cubes: GFP and RFP, Objective: 10×). A microscopic image was taken from the live (Calcein AM) staining of each well, and the total fluorescence signals were quantified for each image. The mean fluorescence level of each probe's group was normalized to the blank control group to estimate the relative cell viability. […]

[2] = Routine (whole) blood tests after repeated dosing; format: in vivo, mouse; conditions: C57BL/6J mice, 3 weekly i.v. doses of 2 nmol over 14 days, n = 5
Experimental: Whole blood tests: Each C57BL/6J mouse (6–8 weeks old) was intravenously injected with 100 µL of PBS buffer or with each peptide or peptoid probe (2 nmol in 100 µL 1× PBS buffer per mouse) on days 0, 7, and 14. The mice were sacrificed on day 15, 24 h after the final injection. The heart, liver, spleen, lungs, and kidneys were collected from each mouse and processed into formalin‐fixed paraffin‐embedded sections for histological evaluation with H&E staining. Whole blood was collected. Both H&E and blood sample analyses were performed by Wuhan Servicebio.

[3] = Serum stability test (HPLC); format: in vitro ADME, mouse; conditions: 37 °C, HPLC UV 646 nm, n = 3; for degradation in serum (in words): 25% v/v mouse serum, 24 h and even after 48 h
Experimental: Cy5‐labeled peptidomimetic probes (10 nmol) were incubated in 25% v/v mouse serum (Biosharp, BL1053A diluted in 1× PBS) at 37 °C. Aliquots (200 µL) were taken periodically at 0 (deadtime: ≈10 min), 2, 24, and 48 h, and added to 400 µL of 3.75% trichloroacetic acid in acetonitrile at 4 °C. Then, all samples were centrifuged to remove the precipitated serum proteins at 13800 g for 10 min at 4 °C. The supernatant (150 µL) was taken to mix with 550 µL of water (with 0.1% TFA) to centrifuge again at 2630 g for 5 min at 4 °C. Five microliter of the supernatant was mixed with 200 µL of water containing 0.1% TFA as the final samples for HPLC analysis at room temperature monitored by absorbance at 646 nm with the integral area of the intact fraction recorded. The peak area for the 10 min time point was designated as 100% intact, and each peak area at successive time points was normalized to the 10 min peak to calculate the percent compound remaining. All the experiments were repeated three times.

[4] = Organ fluorescence 2 h post-injection (clearance route); format: in vivo, mouse; conditions: nude mice, organs isolated 2 h post i.v. injection of 1 nmol
Experimental: (§1) Typically, the fluorescence peptides or peptoids were prepared at a dose of 1 nmol (10 µM in 100 µL of 1× PBS buffer) and injected into the tail vein of each mouse 2 h prior to fluorescence imaging with an IVIS Spectrum imager (PerkinElmer Lumina III). For Figure 4, Figures S17 and S18 (Supporting Information) (joint aging and RA) and Figure S27 (Supporting Information), 2 nmol of Cy5‐(NlysO)7 (20 µM in 100 µL of 1× PBS buffer) were i.v. administered to each mouse. For 1‐week‐old neonatal mice, 1 nmol of Cy5‐(NlysO)7 (20 µM in 50 µL of 1× PBS buffer) was intravenously injected into each mouse. All in vivo imaging was performed 2 h post probe injection with the IVIS Spectrum imager (PerkinElmer, fluorescence: ex/em: 620/670 nm, exposure: 1 s, bing: 4, F/Stop: 2; field of view: A/B/C/Z). Mice were anesthesia with 3% isoflurane (RWD, R510‐22‐10) during image acquisition. Hair in the knee areas was removed before fluorescence imaging for mice in Figure 4a and Figure S17 (Supporting Information). The mice were euthanized following the final image acquisition and occasionally imaged again after skin and organ removal. Next, the airways, ankles, ears, paws, knees, tails, spines, and chest ribs were collected, imaged, and saved for subsequent histology analysis. All acquired fluorescence images were analyzed using the Living Image software (PerkinElmer). The fluorescence signal from each specimen was measured by quantifying the average radiation efficiency within the selected oval‐shaped regions‐of‐interest.

[5] = tested on: vitreous bodies and skin; assay: In vivo uptake in vitreous bodies and skin; conditions: mouse, 2 h post i.v. injection of 2 nmol
Experimental: as §1, with “Next, the airways, ankles, ears, paws, knees, tails, spines, and chest ribs were collected, imaged, and saved for subsequent histology analysis.” left out

SMILES | cytotoxicity to chondrocytes over 72 h (CCK-8) ([1]; tested concentrations 0-40 µM, 72 h) | routine blood analyses vs PBS control group [2] | degradation in serum (in words) [3] | clearance route from organ fluorescence [4] | in vivo fluorescence uptake in vitreous bodies and skin compared to cartilage [5] | cytotoxicity to cultured chondrocytes (CCK8), in words ([1]; 0-40 µM, 24 h) | intact compound remaining after 2 h serum incubation ([3]; 25% v/v mouse serum in 1× PBS, 10 nmol probe, peak area normalized to 10 min)
CN1/C(=C/C=C/C=C/C2=[N+](CCCCCC(=O)NCCCCCC(=O)N(CCCCN)CC(=O)N3C[C@H](O)C[C@H]3C(=O)N(CCCCN)CC(=O)N3C[C@H](O)C[C@H]3C(=O)N(CCCCN)CC(=O)N3C[C@H](O)C[C@H]3C(=O)N(CCCCN)CC(=O)N3C[C@H](O)C[C@H]3C(=O)N(CCCCN)CC(=O)N3C[C@H](O)C[C@H]3C(=O)N(CCCCN)CC(=O)N3C[C@H](O)C[C@H]3C(=O)N(CCCCN)CC(=O)N3C[C@H](O)C[C@H]3C(N)=O)c3ccc(S(=O)(=O)[O-])cc3C2(C)C)C(C)(C)c2cc(S(=O)(=O)O)ccc21 [Cy5‐(NlysO)7] ({X1-Ahx}-[Nlys][Hyp][Nlys][Hyp][Nlys][Hyp][Nlys][Hyp][Nlys][Hyp][Nlys][Hyp][Nlys][Hyp]-NH2) | did not show cytotoxicity | None of the measurements | hardly degraded | might be mainly cleared through kidneys | virtually no in vivo fluorescence uptake | – | –
CN1/C(=C/C=C/C=C/C2=[N+](CCCCCC(=O)NCCCCCC(=O)N[C@@H](CCCNC(=N)N)C(=O)N[C@@H](CCCNC(=N)N)C(=O)N[C@@H](CCCNC(=N)N)C(=O)N[C@@H](CCCNC(=N)N)C(=O)N[C@@H](CCCNC(=N)N)C(=O)N[C@@H](CCCNC(=N)N)C(=O)N[C@@H](CCCNC(=N)N)C(=O)N[C@@H](CCCNC(=N)N)C(N)=O)c3ccc(S(=O)(=O)[O-])cc3C2(C)C)C(C)(C)c2cc(S(=O)(=O)O)ccc21 [Cy5‐R8, reference compound] | – | – | extremely unstable | – | – | significant cytotoxicity | no intact R8 peptide remained
